# Source: paper PMC10914731, “Homo-BacPROTAC-induced degradation of ClpC1 as a strategy against drug-resistant mycobacteria” (Nature Communications, 2024)
# Values joined by “and” are separate entries in the source; they are usually repeats but may differ in a detail not shown here. Equal entries are not always repeated. Where two headings read alike, the source gives them in different places.
# What was measured:
# [1] = type: in vitro ADME, Rat
# [2] = type: in vitro ADME, Human
# Mtb # 8673 = test: microbe, parasite or virus in culture; type: cell-based
# Mtb ATCC 35825 = test: microbe, parasite or virus in culture; type: cell-based
# [3] = test system: Mtb Beijing lineage HN878; type: cell-based, Mycobacterium tuberculosis
# Mycobacterium abscessus = test: microbe, parasite or virus in culture; type: cell-based
# [4] = test system: Mycobacterium intracellulare; test: microbe, parasite or virus in culture; type: cell-based
# Msm #607 = test: Minimum bactericidal concentration (MBC), Msm #607; type: cell-based, Mycobacterium smegmatis; conditions: for MBC: Mycolicibacterium smegmatis
# [5] = test system: non-replicating cells of Mtb H37Rv; type: cell-based, Mycobacterium tuberculosis; conditions: for Supplementary Figure 2 dose-response value, starvation-induced non-replicating H37Rv cells: three replicate columns
# full-length ClpC1 = target: T1, full-length ClpC1 (Mycolicibacterium smegmatis, UniProt A0R574); test: Cell-free degradation of full-length ClpC1 (WES, SDS-PAGE); type: biochemical, M. smegmatis; conditions: WES / SYPRO Ruby SDS-PAGE, result in words
# T1 construct: We also analyzed whether full-length ClpC1 would be degraded in this assay; made in house
# From the text: We also analyzed whether full-length ClpC1 would be degraded in this assay, by analyzing the stability of the full-length form monitored by a ClpC1-N-terminal antibody in the WES assays, or directly by SYPRO^TM Ruby stained SDS-PAGE gels in the presence or absence of ClpC1-NTD as additional substrate. The Homo-BacPROTACs tested induced no or only minor degradation of the full-length ClpC1 under these in vitro conditions (Fig. 4e). Whether this is due to hexamer formation stabilizing ClpC1 protomers or missing cofactor(s) of the protease complex, is currently unclear. Likewise, the exact sequential and structural features of native substrates targeted by ClpC1 are not known, except that partially disordered peptide segments can promote degradation.
# For SDS-PAGE experiments, reaction samples were treated with 2.7 µl 4x Roti Load 1 (Roth #K929.1), instead of adding sample buffer and fluorescent mastermix, and incubated at 95 °C for 5 min. […] The PageRuler Prestained Protein Ladder (Thermo Scientific #26616) was used as a marker. […]
# [6] = target: ClpC1 NTD, M. smegmatis ClpC1P1P2 complex (UniProt A0R574+P9WPC9); type: biochemical; conditions: for ClpC1 NTD peak area: replicates 1 and 2; for % Response: two replicates
# Mtb H37Rv = conditions: combination with bedaquiline; cited from earlier work
# [7] = Mycobacterium tuberculosis, mean, n = 2 well replicates
# [8] = Mycobacterium tuberculosis, single well replicates
# [9] = single well replicates, listed as 8 (UdSBAI-0545)
# [10] = Mycobacterium tuberculosis, ATCC35825, mean, n = 2 well replicates
# [11] = Mycobacterium tuberculosis, ATCC35825, single well replicates
# [12] = Experiment 2, three replicate columns
# [13] = Experiment 2, three replicate columns, read-out: MIC (µM) Mycobacterium abscessus
# [14] = Mycobacteroides abscessus, Experiment 1, read-out: MIC Mycobacterium abscessus
# [15] = Mycobacteroides abscessus, Experiment 2, three replicate columns, read-out: MIC (µM) Mycobacterium abscessus
# [16] = Mycobacteroides abscessus, Experiment 2, three replicate columns, read-out: MIC (µg/ml) Mycobacterium abscessus
# [17] = Mycobacteroides abscessus, mean ± SD, read-out: MIC Mycobacterium abscessus
# [18] = Experiment 2, three replicate columns, read-out: MIC (µM) Mycobacterium intracellulare
# [19] = Mycobacterium intracellulare, Experiment 1, read-out: MIC Mycobacterium intracellulare
# [20] = Mycobacterium intracellulare, Experiment 2, three replicate columns, read-out: MIC (µM) Mycobacterium intracellulare
# [21] = Mycobacterium intracellulare, Experiment 2, three replicate columns, read-out: MIC (µg/ml) Mycobacterium intracellulare
# [22] = Mycobacterium intracellulare, mean ± SD, read-out: MIC Mycobacterium intracellulare
# [23] = ATCC607, read-out: MBC (from Set 3) Msm ATCC 607
# [24] = single well replicates, listed as 12 (UdSBI-4377)
# ClpC1 NTD, M. smegmatis ClpC1P1P2 complex, sequence (P9WPC9 1-156, looked up, natural form): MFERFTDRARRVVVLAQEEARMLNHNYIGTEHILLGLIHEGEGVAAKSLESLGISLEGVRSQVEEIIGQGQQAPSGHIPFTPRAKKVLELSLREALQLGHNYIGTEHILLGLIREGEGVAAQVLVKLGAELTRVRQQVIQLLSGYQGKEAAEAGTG
# ClpC1 NTD, M. smegmatis ClpC1P1P2 complex, sequence (A0R574 whole entry): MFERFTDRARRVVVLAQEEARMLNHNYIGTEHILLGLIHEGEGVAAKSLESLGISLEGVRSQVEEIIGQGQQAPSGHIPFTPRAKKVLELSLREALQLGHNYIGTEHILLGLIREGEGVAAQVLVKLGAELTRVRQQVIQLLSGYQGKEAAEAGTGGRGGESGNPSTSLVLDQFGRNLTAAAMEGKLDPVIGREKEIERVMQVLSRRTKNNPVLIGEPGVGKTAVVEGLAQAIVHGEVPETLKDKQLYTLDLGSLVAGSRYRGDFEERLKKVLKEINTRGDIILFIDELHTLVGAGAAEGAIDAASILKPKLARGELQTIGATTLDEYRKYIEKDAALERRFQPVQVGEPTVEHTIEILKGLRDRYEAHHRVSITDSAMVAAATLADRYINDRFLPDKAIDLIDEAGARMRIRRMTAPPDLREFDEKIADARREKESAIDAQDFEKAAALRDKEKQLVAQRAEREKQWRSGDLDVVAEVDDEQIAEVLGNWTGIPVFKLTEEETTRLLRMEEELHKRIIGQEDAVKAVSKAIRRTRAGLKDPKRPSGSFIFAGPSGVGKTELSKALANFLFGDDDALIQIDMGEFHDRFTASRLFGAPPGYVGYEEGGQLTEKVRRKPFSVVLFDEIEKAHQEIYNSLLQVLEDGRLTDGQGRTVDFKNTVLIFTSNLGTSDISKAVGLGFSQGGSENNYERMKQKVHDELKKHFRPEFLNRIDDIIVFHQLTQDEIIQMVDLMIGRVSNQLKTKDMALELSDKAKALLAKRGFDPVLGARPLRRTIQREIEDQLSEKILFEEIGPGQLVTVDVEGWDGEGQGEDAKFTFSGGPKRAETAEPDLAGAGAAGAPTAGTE
# T1 sequence (A0R574 whole entry): as above
smiles,measurement,setting,value
COC(c1ccccc1)C1NC(=O)C(C)NC(=O)C(CC(C)CO)N(C)C(=O)C(Cc2cn(Cc3cn(CCOCCOCCOCCOCCn4cc(Cn5cc(CC6NC(=O)C(C(C)C)NC(=O)C(CC(C)C)N(C)C(=O)C(C(C)C)NC(=O)C(C(OC)c7ccccc7)NC(=O)C(C)NC(=O)C(CC(C)CO)N(C)C6=O)c6ccccc65)nn4)nn3)c3ccccc23)NC(=O)C(C(C)C)NC(=O)C(CC(C)C)N(C)C(=O)C(C(C)C)NC1=O (centres unmarked) [Compound 8],Hepatocyte Rat,[1]; clearance in hepatocytes,6 %Qh
same,Hepatocyte Human,[2]; clearance in hepatocytes,12 %Qh
same,MIC,Mtb # 8673; [7],< 0.1 µM and < 0.2 µg/mL
same,MIC,Mtb # 8673; [8],< 0.1 µM and < 0.21 µg/mL
same,MIC,Mtb # 8673; [9],<0.1 µM
same,MIC Mtb # 8673,Mtb # 8673; [9],<0.21 µg/mL
same,MIC,Mtb ATCC 35825; [10],< 0.1 µM and < 0.2 µg/mL
same,MIC,Mtb ATCC 35825; [11],< 0.21 µg/mL and < 0.1 µM
same,MIC,Mtb ATCC 35825; [9],<0.1 µM
same,MIC Mtb ATCC 35825,Mtb ATCC 35825; [9],<0.21 µg/mL
same,"inhibition of bacterial growth, Mtb Beijing strain HN878","[3]; compared to the matching monomers, result in words",more efficient inhibition of bacterial
same,MIC (µg/ml) Mycobacterium abscessus,Mycobacterium abscessus; [12],>108.53 µg/mL
same,MIC,Mycobacterium abscessus; [13],>50 µM
same,MIC,Mycobacterium abscessus; [14],> 50 µM and > 109 µg/mL
same,MIC,Mycobacterium abscessus; [15],> 50 µM
same,MIC,Mycobacterium abscessus; [16],> 109 µg/mL
same,MIC,Mycobacterium abscessus; [17],> 50 µM
same,MIC,"[4]; Experiment 1, listed as 8 (UdSBI-0545), read-out: MIC Mycobacterium intracellulare",>50 µM
same,MIC (µg/ml) Mycobacterium intracellulare,[4]; [12],>108.53 µg/mL
same,MIC,[4]; [18],>50 µM
same,MIC,[4]; [19],> 109 µg/mL
same,MIC,[4]; [20],> 50 µM
same,MIC,[4]; [21],> 109 µg/mL
same,MIC,[4]; [22],> 50 µM
same,colony growth after replating (MBC assay),"Msm #607; Msm #607, up to 50 µM, result in words",growth of colonies could be observed across all tested concentrations
same,MBC,Msm #607; [23],> 109 µg/mL and > 50 µM
same,MBC,"Msm #607; read-out: MBC Msm #607, individual example",> 50 µM and > 108 µg/mL
same,"Supplementary Figure 2 dose-response value, starvation-induced non-replicating H37Rv cells",[5]; Conc. 0.0488281 µM,101.903 and 93.5529 and 95.5846
same,"Supplementary Figure 2 dose-response value, starvation-induced non-replicating H37Rv cells",[5]; Conc. 0.195312 µM,93.6246 and 84.7332 and 86.7409
same,"Supplementary Figure 2 dose-response value, starvation-induced non-replicating H37Rv cells",[5]; Conc. 0.390625 µM,90.2545 and 83.1636 and 86.2868
same,"Supplementary Figure 2 dose-response value, starvation-induced non-replicating H37Rv cells",[5]; Conc. 0.78125 µM,91.9834 and 86.6134 and 81.2993
same,"Supplementary Figure 2 dose-response value, starvation-induced non-replicating H37Rv cells",[5]; Conc. 1.5625 µM,90.366 and 86 and 85.5618
same,"Supplementary Figure 2 dose-response value, starvation-induced non-replicating H37Rv cells",[5]; Conc. 3.125 µM,93.9114 and 69.2927 and 87.5137
same,"Supplementary Figure 2 dose-response value, starvation-induced non-replicating H37Rv cells",[5]; Conc. 6.25 µM,87.458 and 76.4871 and 82.7732
same,"Supplementary Figure 2 dose-response value, starvation-induced non-replicating H37Rv cells",[5]; Conc. 25 µM,86.1354 and 89.2267 and 87.4022
same,"Supplementary Figure 2 dose-response value, starvation-induced non-replicating H37Rv cells",[5]; Conc. 50 µM,91.1707 and 85.8088 and 84.3747
same,"Supplementary Figure 2 dose-response value, starvation-induced non-replicating H37Rv cells",[5]; Conc. 100 µM,92.3658 and 81.0443 and 90.6608
same,inhibitory activity on non-growing Mtb H37Rv,"[5]; starvation for three weeks, result in words",lost their inhibitory activity
same,degradation of full-length ClpC1,full-length ClpC1,not significantly degraded
same,ClpC1 NTD peak area,"[6]; 8 µM compound, time 0 min",331639 and 301583
same,% Response,"[6]; 8 µM compound, time 0 min",94.5282% and 100.62%
same,ClpC1 NTD peak area,"[6]; 8 µM compound, time 45 min",314553 and 280109
same,% Response,"[6]; 8 µM compound, time 45 min",83.982% and 77.683%
same,ClpC1 NTD peak area,"[6]; 8 µM compound, time 90 min",285641 and 244656
same,% Response,"[6]; 8 µM compound, time 90 min",56.6216% and 52.7782%
same,ClpC1 NTD peak area,"[6]; 8 µM compound, time 150 min",191892
same,% Response,"[6]; 8 µM compound, time 150 min",43.2573%
same,ClpC1 NTD peak area,"[6]; 8 µM compound, time 240 min",311145 and 177822
same,% Response,"[6]; 8 µM compound, time 240 min",45.4516% and 26.6563%
same,ClpC1 NTD peak area,"[6]; 8 µM compound, time 360 min",222125 and 221356
same,% Response,"[6]; 8 µM compound, time 360 min",26.4436% and 30.03%
same,ClpC1 NTD peak area,"[6]; 33 µM compound, time 0 min",810154 and 722357
same,% Response,"[6]; 33 µM compound, time 0 min",102.812% and 94.7011%
same,ClpC1 NTD peak area,"[6]; 33 µM compound, time 45 min",641074 and 448402
same,% Response,"[6]; 33 µM compound, time 45 min",59.8432% and 44.7396%
same,ClpC1 NTD peak area,"[6]; 33 µM compound, time 90 min",173883 and 214990
same,% Response,"[6]; 33 µM compound, time 90 min",14.8318% and 19.2596%
same,ClpC1 NTD peak area,"[6]; 33 µM compound, time 150 min",175010 and 133678
same,% Response,"[6]; 33 µM compound, time 150 min",13.2219% and 10.0521%
same,ClpC1 NTD peak area,"[6]; 33 µM compound, time 240 min",91238.1 and 172941
same,% Response,"[6]; 33 µM compound, time 240 min",6.759% and 11.5705%
same,ClpC1 NTD peak area,"[6]; 33 µM compound, time 360 min",204242 and 62562.1
same,% Response,"[6]; 33 µM compound, time 360 min",8.812% and 3.58%
COC(c1ccccc1)C1NC(=O)C(C)NC(=O)C(CC(C)CO)N(C)C(=O)C(Cc2cn(C)c3ccccc23)NC(=O)C(Cc2cn(CCCCCn3cc(CC4NC(=O)C(CC(C)C)N(C)C(=O)C(C(C)C)NC(=O)C(C(OC)c5ccccc5)NC(=O)C(C)NC(=O)C(CC(C)CO)N(C)C(=O)C(Cc5cn(C)c6ccccc56)NC4=O)nn3)nn2)NC(=O)C(CC(C)C)N(C)C(=O)C(C(C)C)NC1=O (centres unmarked) [Compound 12],Hepatocyte Rat,"[1]; rat, pH 7.4",6 %Qh
same,Hepatocyte Human,"[2]; human, pH 7.4",12 %Qh
same,MIC,Mtb # 8673; [7],< 0.1 µM and < 0.2 µg/mL
same,MIC,Mtb # 8673; [8],< 0.1 µM and < 0.19 µg/mL
same,MIC,Mtb # 8673; [24],<0.1 µM
same,MIC Mtb # 8673,Mtb # 8673; [24],<0.19 µg/mL
same,MIC,Mtb ATCC 35825; [10],< 0.1 µM and < 0.2 µg/mL
same,MIC,Mtb ATCC 35825; [11],< 0.19 µg/mL and < 0.1 µM
same,MIC,Mtb ATCC 35825; [24],<0.1 µM
same,MIC Mtb ATCC 35825,Mtb ATCC 35825; [24],<0.19 µg/mL
same,"inhibition of bacterial growth, Mtb Beijing strain HN878",[3],more efficient inhibition of bacterial
same,MIC (µg/ml) Mycobacterium abscessus,Mycobacterium abscessus; [12],>99.02 µg/mL
same,MIC,Mycobacterium abscessus; [13],>50 µM
same,MIC,Mycobacterium abscessus; [14],> 50 µM and > 99 µg/mL
same,MIC,Mycobacterium abscessus; [15],> 50 µM
same,MIC,Mycobacterium abscessus; [16],> 99 µg/mL
same,MIC,Mycobacterium abscessus; [17],> 50 µM
same,MIC,"[4]; Experiment 1, listed as 12 (UdSBI-4377), read-out: MIC Mycobacterium intracellulare",>50 µM
same,MIC (µg/ml) Mycobacterium intracellulare,[4]; [12],>99.02 µg/mL
same,MIC,[4]; [18],>50 µM
same,MIC,[4]; [19],> 99 µg/mL
same,MIC,[4]; [20],> 50 µM
same,MIC,[4]; [21],> 99 µg/mL
same,MIC,[4]; [22],> 50 µM
same,colony growth after replating (MBC assay),Msm #607,growth of colonies could be observed across all tested concentrations
same,MBC,Msm #607; [23],> 99 µg/mL and > 50 µM
same,MBC,Msm #607; read-out: MBC Msm #607,> 50 µM and > 99 µg/mL
same,inhibitory activity on non-growing Mtb H37Rv,[5],lost their inhibitory activity
same,effect of bedaquiline on activity against Mtb H37Rv,Mtb H37Rv,no effect
